Results on 1 molecule are retold here after article PMC10191619, “Bilirubin gates the TRPM2 channel as a direct agonist to exacerbate ischemic brain damage” (Neuron, 2023).

For series [1], the system named is layer 5 cortical pyramidal neurons from adult Trpm2+/+ mice. In words: Whole-cell current-clamp, intrinsic excitability in brain slices, Trpm2+/+. In kind it is cell-based, mouse.
In the next series the target is T1, hTRPM2 R302A/R358A (Homo sapiens, UniProt O94759, R302A/R358A).
T1 construct: expressed in transfected cells; host or cells: HEK293T cells, transient transfection (Lipofectamine 3000), GFP cDNA co-transfected as a separate marker
T1 sequence (O94759 whole entry R302A/R358A): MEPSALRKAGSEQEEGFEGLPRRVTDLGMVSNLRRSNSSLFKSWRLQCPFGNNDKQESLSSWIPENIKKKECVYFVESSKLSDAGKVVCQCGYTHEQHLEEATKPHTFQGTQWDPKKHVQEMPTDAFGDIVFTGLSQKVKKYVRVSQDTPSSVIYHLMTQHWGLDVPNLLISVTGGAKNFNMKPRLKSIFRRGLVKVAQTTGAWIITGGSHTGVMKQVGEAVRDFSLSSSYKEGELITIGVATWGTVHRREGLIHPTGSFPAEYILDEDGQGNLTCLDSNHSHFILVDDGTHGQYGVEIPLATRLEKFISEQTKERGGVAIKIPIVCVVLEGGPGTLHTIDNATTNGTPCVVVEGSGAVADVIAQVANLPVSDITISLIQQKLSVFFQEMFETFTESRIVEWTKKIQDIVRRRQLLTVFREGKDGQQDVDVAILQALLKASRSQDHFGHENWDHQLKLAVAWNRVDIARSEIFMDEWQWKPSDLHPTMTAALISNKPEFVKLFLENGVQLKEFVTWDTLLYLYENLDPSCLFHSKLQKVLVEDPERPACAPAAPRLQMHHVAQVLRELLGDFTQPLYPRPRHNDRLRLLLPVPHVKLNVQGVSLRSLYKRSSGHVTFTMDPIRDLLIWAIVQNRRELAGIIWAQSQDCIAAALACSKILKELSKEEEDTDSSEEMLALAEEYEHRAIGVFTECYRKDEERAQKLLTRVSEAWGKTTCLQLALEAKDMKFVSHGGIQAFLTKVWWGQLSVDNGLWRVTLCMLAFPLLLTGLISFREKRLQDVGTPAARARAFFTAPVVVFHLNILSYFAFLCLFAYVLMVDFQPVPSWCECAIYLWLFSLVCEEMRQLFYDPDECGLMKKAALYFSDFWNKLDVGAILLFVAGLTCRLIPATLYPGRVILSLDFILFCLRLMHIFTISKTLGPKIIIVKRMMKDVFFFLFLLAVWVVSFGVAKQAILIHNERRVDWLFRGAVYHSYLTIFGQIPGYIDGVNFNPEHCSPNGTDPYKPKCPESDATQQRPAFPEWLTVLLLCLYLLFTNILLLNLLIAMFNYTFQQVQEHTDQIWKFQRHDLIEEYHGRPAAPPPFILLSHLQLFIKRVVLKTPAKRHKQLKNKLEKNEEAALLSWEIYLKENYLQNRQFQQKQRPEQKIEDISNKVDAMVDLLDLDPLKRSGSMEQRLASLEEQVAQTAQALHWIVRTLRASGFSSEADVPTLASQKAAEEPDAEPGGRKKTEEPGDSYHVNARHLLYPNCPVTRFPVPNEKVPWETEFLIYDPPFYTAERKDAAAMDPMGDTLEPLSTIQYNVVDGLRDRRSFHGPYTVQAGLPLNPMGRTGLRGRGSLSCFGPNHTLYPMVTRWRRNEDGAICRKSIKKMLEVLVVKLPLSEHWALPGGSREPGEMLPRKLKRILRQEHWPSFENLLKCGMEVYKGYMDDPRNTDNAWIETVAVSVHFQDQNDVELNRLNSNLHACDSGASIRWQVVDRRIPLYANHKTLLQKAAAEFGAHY
In words: Whole-cell patch-clamp, N-terminal ADPR-binding site mutant. The class given is cell-based. The following applies: bilirubin. The protocol: Human embryonic kidney 293 (HEK293) cells with tetracycline-inducible expression of human TRPM2 channel (hTRPM2) were cultured in a mixed medium containing DMEM/ F-12 (Gibco, USA) and 10% fetal bovine serum (Gibco, USA) as well as blasticidin (50 μg/ml, Invivogen, USA) and zeocin (0.4 mg/ml, Invivogen, USA). The expression of hTRPM2 was induced by substituting blasticin and zeocin for tetracycline (1 μg/ml, Sigma, USA) 24-48 hours before use. TRPM2 channel mutants were transiently expressed in HEK293T cells by transfection with using Lipofectamine 3000. Briefly, HEK293T cells were transiently transfected with cDNAs encoding the mutant hTRPM2 channel. The cDNA for GFP was co-transfected as a marker for identification of the transfected cells for electrophysiological experiments 16-24 hours after transfection. […]
Coronal cortical slices were transferred into the recording chamber and continuously perfused at room temperature with ACSF oxygenated with 95% O2 and 5% CO2. […] For whole-cell or single channel recordings from transfected HEK-293T cells, the coverslips were placed in a culture dish (35 × 35 mm, Sorfa) containing HEPES based extracellular solution (ECS) and recorded by patch-clamp technique. […] Each coverslip was recorded only once with different drug exposures. […]
(Patch clamp records ionic current or voltage across a cell membrane.)

The next series has as its system tMCAO Trpm2−/− mice. Description: tMCAO ischemia model, infarct volume by TTC staining, Trpm2-/- mice. The class given is in vivo, mouse. Conditions: 24 h after tMCAO.
Series [2] has as its system hTRPM2 pore mutants (P983A, D987A, A1046C, N1049C). Description: Whole-cell patch-clamp, pore mutants. The class given is cell-based, human. The following applies: bilirubin.
Series [3] has as its system cortical pyramidal neurons from D1066A KI mice. In words: Whole-cell current-clamp, intrinsic excitability in brain slices, D1066A KI. Conditions: prolonged perfusion time. The class given is cell-based, mouse.
For series [4], the system named is hTRPM2 Ca2+ binding site mutants. In words: Whole-cell patch-clamp, Ca2+ binding site mutants. The class given is cell-based, human. Conditions: mutations disabling binding sites for Ca2+.
Series [5] is described as follows: Serum and CSF TB / UCB measurement after bilirubin injection and tMCAO. In kind it is in vivo, mouse. The protocol: Trpm2^+/+, Trpm2^-/- and D1066A C57BL/6 mice were anesthetized by intraperitoneal injection of pentobarbital (55 mg/kg) 24 hours before tMCAO operation, and then fixed in the stereotactic setup (RWD Life Science). The skin above the skull from the base of the neck up to in between the eyes was cut open. A hole directly above the right ventricle was made with a grinding drill to allow insertion of the micro syringe into the lateral ventricle (coordinates: 1.1 mm laterally to the right and 0.5 mm posterior of the bregma, 2.5 mm deep). CSF was collected by using the micro injection pump (speed: 0.2 μl/min), after which the syringe was withdrawn, and the skin was sutured. The mice were removed from the stereotactic setup and 50 μl blood was taken through the orbital venous plexus. Mice were then placed on 37 °C heating blanket till they regained consciousness and returned to the cage. 1 or 24 hours after tMCAO, animals were anesthetized using a 2% isoflurane-oxygen mixture. CSF and blood were collected in the same way before sacrifice. All samples were centrifuged at 3000 r/min. Total bilirubin concentration of supernatants was measured with the Bilirubin Reagent Kit (Sigma). Samples were transferred to a 96-plates and mixed with reaction solution before measurements of their absorbance were made at 530 nm 10 minutes later. UCB concentration was measured with UnaG, a bilirubin-inducible fluorescent protein from Japanese eel muscle. For standard calibration curve of fluorescence intensity, a 100 μl reaction mixture containing 50 μl UnaG solution (1 μM) and 50 μl artificial bilirubin solution with concentration gradient (1.4278 μM, 0.7139 μM, 0.3573 μM, 0.1785 μM, 0.0893 μM and 0 μM) was prepared. After 10 minutes of reaction, the fluorescence intensity was detected by microplate reader (Synergy H1M, Bio Tek) with fluorescence filters for excitation and emission wavelengths of 485 and 528 nm, respectively. Serum and CSF samples were diluted 20-fold with PBS and fluorescence intensity was measured. The UCB levels were extrapolated from the standard curve.

In series [6] the target is T2, human TRPM2 (hTRPM2) channel (Homo sapiens, UniProt O94759).
T2 construct: expressed in transfected cells; host or cells: HEK293 cells with tetracycline-inducible expression of hTRPM2 (HEK-hTRPM2)
T2 sequence (O94759 whole entry): as the sequence (O94759 whole entry R302A/R358A) above, with A302R, A358R counted along it
In words: Whole-cell patch-clamp of TRPM2 currents (voltage ramps) in HEK-hTRPM2 cells. In kind it is cell-based. The protocol: Human embryonic kidney 293 (HEK293) cells with tetracycline-inducible expression of human TRPM2 channel (hTRPM2) were cultured in a mixed medium containing DMEM/ F-12 (Gibco, USA) and 10% fetal bovine serum (Gibco, USA) as well as blasticidin (50 μg/ml, Invivogen, USA) and zeocin (0.4 mg/ml, Invivogen, USA). The expression of hTRPM2 was induced by substituting blasticin and zeocin for tetracycline (1 μg/ml, Sigma, USA) 24-48 hours before use. TRPM2 channel mutants were transiently expressed in HEK293T cells by transfection with using Lipofectamine 3000. Briefly, HEK293T cells were transiently transfected with cDNAs encoding the mutant hTRPM2 channel. The cDNA for GFP was co-transfected as a marker for identification of the transfected cells for electrophysiological experiments 16-24 hours after transfection. All the cells were seeded on 96-well coverslips (3 x 3 mm, WHB) and cultured at 37 °C under a humidified atmosphere containing 5% CO2.
Coronal cortical slices were transferred into the recording chamber and continuously perfused at room temperature with ACSF oxygenated with 95% O2 and 5% CO2. Cortical pyramidal neurons were visualized by an upright microscope (Carl Zeiss) equipped with a CCD monochrome video camera (IR-1000, DAGE-MTI) and identified by their localization in Layer V. Electrophysiology data were sampled (50 kHz) and lowpass filtered (5kHz four-pole Bessel filter) by a MultiClamp 700B dual channel amplifier (Molecular Devices). The patch electrodes were pulled from borosilicate capillary glass (1.5 mm outer diameter; 0.86 mm inner diameter; World Precision Instruments, USA) with a horizontal multi-step micropipette puller (Model, P-1000, Sutter Instrument). […] After forming >1 GΩ resistance seal in cell-attached configuration, we broke the patch membrane and kept the neurons at -64 mV and then performed whole-cell current-clamp recordings. Cells requiring holding current > -150 pA at -60 mV were discarded. The resting membrane potential (Vrest) was tested in I = 0 configuration. Intrinsic excitability was tested by 500 ms long current steps between -200 and +400 pA with 50-pA increments in the presence of blockers for AMPA, NMDA, and GABA receptors (APV, 50 μM; NBQX, 10 μM; bicuculine 10 μM, strychnine 1 μM). Only one recording was conducted per brain slice. For whole-cell or single channel recordings from transfected HEK-293T cells, the coverslips were placed in a culture dish (35 × 35 mm, Sorfa) containing HEPES based extracellular solution (ECS) and recorded by patch-clamp technique. Cells were visualized by using the phase-contrast mode of an inverted microscope (TE-2000U; Nikon, Japan) and the patch pipette was positioned on the cells using a motorized micromanipulator (MP-225; Sutter) under the microscope. The transfected cells were voltage-clamped at 0 mV and subjected to voltage ramps from -100 mV to +100 mV (500 ms duration) every 5 s. The basal ramp current (i.e., the trace when the leak current is stable after membrane rupture) before channel activation were used for leak subtraction of all subsequent ramp currents. Each coverslip was recorded only once with different drug exposures. Single-channel recordings were carried out under outside-out configuration, using pipettes with resistance of 6-8 MΩ. The excised patches were voltage-clamped from -80 mV to +80 mV (in 20 mV increasement) to generate the current-voltage (I-V) relationship of single channel currents from which their main conductance was calculated from the slope by linear regression of the mean current amplitude at different potentials. Single-channel recordings of the cortical neurons were performed by adding 4-AP, TEA-Cl, CsCl2 and TTX to block sodium channel, potassium channel and calcium channel.
The cutting solution for brain slices contained the following (in mM): 87 NaCl, 75 sucrose, 2.5 KCl, 10 glucose, 1.25 NaH2PO4, 2 Na-pyruvate, 3 myo-inositol, 0.5 ascorbic acid, 26 NaHCO3,7 MgCl2, and 0.1 CaCl2 (pH 7.4; 290-320 mOsm).

`C=CC1=C(C)/C(=C/c2[nH]c(Cc3[nH]c(/C=C4\NC(=O)C(C)=C4C=C)c(C)c3CCC(=O)O)c(CCC(=O)O)c2C)NC1=O` [bilirubin, Bilirubin]: the “excitability of cortical neurons” value in series [1] (Trpm2+/+ slices, bilirubin for 5 and 20 min, synaptic blockers present) is “significantly increased”. For the same molecule, in series [1] (Trpm2+/+, 20 min after bilirubin application, 2.5 nA current in 0.3 ms), the spike amplitude result is “significantly attenuated”. Further, the “activation of mutant TRPM2 currents” value on hTRPM2 R302A/R358A is recorded as “remained responsive”; in series [2] it was “effectively activated”. For the same molecule, the infarct volume in the series with tMCAO Trpm2−/− mice (Trpm2−/− mice, bilirubin 50 μg/g i.p. 30 min prior to 30 min tMCAO, n = 15) is reported as 25.69% ± 4.46%; in the series with tMCAO Trpm2−/− mice (female Trpm2−/− mice, n = 5), 30.63 ± 8.71%; in the series with tMCAO Trpm2−/− mice (male Trpm2−/− mice, n = 10), 23.22 ± 5.25%. In addition, in series [3], the “hyperexcitability in cortical pyramidal neurons” value is “did not induce the hyperexcitability”. Further, the “activation of TRPM2 currents by bilirubin” value in series [4] is reported as “did not prevent the activation”. In addition, the “serum and CSF UCB concentration, Bil group vs Ctrl group” value in series [5] (D1066A KI mice, 24 h after tMCAO, n = 9) is “comparable”. The “UCB concentration in serum and CSF, Bil group vs Ctrl group” value in series [5] (Trpm2+/+ mice, 24 h after tMCAO) was “much higher”. In addition, the “level of UCB, Bil group vs Ctrl group” value in series [5] (Trpm2−/− mice, 24 h after tMCAO) is “did not change”. Also, the “TB levels in serum and CSF vs saline” value in series [5] (mice injected with bilirubin 50 μg/g i.p., after tMCAO) is “markedly higher”. Besides, the “magnitude of the TRPM2 currents evoked by voltage ramps” value in series [6] (bilirubin 9 μM, −100 to +100 mV, control solution) is listed as “increased”. Further, the “activation of TRPM2 currents” value in series [6] (bilirubin in the presence of PJ-34 (10 μM)) is “remained effective”. For the same molecule, the TRPM2 currents entry in series [6] (bilirubin, intracellular ADPR 5 μM (subthreshold)) is “increased TRPM2 currents”.
